Our source for the % of control and % of engagement values is ChEMBL document CHEMBL5465560, “Selectivity Literature for EUbOPEN Chemogenomic Library” (2024).

SMILES strings stand for the structures.

For assay [1], the target named is Activin receptor type-1-like (Homo sapiens) (UniProt P37023). The settings on record: at 10 µM.
Assay [2] has as its target T1, Serine/threonine-protein kinase NLK (Homo sapiens) (UniProt Q9UBE8).
T1 sequence (whole entry): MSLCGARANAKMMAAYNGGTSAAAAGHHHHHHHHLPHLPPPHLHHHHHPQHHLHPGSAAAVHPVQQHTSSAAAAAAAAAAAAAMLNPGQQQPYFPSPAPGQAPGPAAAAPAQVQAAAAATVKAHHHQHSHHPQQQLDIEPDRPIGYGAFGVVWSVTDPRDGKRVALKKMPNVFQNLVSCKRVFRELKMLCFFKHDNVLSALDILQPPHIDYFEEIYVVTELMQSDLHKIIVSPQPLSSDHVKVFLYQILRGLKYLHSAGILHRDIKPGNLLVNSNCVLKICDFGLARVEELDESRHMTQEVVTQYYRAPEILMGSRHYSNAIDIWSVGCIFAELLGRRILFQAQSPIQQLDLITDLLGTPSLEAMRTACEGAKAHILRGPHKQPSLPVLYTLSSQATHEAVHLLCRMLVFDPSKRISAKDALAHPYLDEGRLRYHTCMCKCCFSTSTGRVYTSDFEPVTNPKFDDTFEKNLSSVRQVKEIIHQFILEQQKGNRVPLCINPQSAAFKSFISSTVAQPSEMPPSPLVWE
Kind of assay: Selectivity interaction (KinomeScan (DiscoverX)) EUB0001049a NLK. The settings on record: at 1 µM.

In assay [3] the target is T2, Membrane-associated tyrosine- and threonine-specific cdc2-inhibitory kinase (Homo sapiens) (UniProt Q99640).
T2 sequence (whole entry): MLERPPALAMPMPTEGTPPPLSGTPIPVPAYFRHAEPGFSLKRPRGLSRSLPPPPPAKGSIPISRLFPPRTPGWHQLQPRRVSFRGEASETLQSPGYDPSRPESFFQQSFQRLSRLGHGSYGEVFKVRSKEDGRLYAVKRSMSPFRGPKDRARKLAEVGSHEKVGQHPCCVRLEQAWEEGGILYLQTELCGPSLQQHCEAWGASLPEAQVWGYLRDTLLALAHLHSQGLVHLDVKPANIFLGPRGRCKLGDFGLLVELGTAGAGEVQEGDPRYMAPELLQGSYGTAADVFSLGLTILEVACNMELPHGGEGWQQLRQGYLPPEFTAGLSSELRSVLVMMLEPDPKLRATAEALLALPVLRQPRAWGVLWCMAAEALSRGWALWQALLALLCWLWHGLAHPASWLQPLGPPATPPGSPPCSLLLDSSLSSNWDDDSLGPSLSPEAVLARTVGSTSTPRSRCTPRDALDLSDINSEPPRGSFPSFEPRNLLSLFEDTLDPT
Kind of assay: Selectivity interaction (KinomeScan (DiscoverX)) EUB0000618a PKMYT1. The settings on record: at 10 µM.

Assay [4] deals with T3, Interleukin-1 receptor-associated kinase 4 (Homo sapiens) (UniProt Q9NWZ3).
T3 sequence (whole entry): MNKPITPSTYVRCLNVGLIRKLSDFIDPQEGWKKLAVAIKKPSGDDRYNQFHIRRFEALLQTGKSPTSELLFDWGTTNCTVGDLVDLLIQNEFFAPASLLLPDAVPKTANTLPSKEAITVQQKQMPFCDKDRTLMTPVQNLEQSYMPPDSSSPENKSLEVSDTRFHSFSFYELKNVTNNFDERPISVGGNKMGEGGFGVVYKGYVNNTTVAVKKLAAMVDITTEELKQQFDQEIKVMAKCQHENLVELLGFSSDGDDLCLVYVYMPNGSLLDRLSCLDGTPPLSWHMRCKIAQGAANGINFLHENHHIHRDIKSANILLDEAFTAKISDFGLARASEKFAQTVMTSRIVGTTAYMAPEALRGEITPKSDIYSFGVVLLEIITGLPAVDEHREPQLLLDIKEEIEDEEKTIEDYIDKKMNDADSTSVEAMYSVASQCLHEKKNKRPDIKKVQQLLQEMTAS
Briefly: Selectivity interaction (KinomeScan (DiscoverX)) EUB0000618a IRAK4. The following applies: at 10 µM.

In assay [5] the target is T4, Inhibitor of nuclear factor kappa-B kinase subunit beta (Homo sapiens) (UniProt O14920).
T4 sequence (whole entry): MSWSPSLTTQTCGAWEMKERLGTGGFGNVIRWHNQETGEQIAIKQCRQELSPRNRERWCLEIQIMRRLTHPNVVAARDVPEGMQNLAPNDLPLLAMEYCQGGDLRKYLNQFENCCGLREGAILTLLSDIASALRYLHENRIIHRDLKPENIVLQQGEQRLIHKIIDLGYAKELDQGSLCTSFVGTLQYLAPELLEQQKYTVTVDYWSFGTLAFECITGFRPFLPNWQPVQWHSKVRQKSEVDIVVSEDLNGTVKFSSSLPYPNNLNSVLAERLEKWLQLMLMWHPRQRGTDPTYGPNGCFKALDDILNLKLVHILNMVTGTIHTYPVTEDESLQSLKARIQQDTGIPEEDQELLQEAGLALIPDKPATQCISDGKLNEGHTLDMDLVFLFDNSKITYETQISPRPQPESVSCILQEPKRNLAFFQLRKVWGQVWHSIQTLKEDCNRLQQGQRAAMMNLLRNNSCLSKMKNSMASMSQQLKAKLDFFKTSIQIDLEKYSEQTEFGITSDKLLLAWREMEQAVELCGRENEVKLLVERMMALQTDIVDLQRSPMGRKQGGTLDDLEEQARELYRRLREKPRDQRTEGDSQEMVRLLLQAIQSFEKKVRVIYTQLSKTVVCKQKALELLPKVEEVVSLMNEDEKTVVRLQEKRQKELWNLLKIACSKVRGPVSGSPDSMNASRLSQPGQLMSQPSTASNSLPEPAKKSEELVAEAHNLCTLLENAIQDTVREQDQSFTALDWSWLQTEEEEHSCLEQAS
Kind of assay: Selectivity interaction (Kinase panel (KiNativ target engagement assay in Jurkat cells)) EUB0001635a IKBKB. Format: cell-based. The following applies: Selectivity number of off-targets 0.0, Selectivity number of targets 233.0, Source Knowledge https://www.sciencedirect.com/science/article/pii/S2451945619300674?via%3Dihub, at 1 µM.

Activin receptor type-1-like (Homo sapiens), sequence (P37023 whole entry): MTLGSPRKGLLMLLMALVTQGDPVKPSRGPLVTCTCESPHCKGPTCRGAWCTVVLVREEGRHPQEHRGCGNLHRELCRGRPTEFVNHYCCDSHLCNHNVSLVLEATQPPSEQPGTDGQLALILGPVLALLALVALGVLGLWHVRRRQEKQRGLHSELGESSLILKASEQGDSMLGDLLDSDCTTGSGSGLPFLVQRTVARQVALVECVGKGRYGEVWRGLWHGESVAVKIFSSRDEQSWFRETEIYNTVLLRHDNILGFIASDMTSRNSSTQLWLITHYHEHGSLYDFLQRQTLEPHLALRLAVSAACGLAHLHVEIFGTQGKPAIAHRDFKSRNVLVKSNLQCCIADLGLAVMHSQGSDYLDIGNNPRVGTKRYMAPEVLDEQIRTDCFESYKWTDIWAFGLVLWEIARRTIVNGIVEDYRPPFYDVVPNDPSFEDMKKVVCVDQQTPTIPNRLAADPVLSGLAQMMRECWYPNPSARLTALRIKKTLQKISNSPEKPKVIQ

Compound `CCN(CC)CCCCNc1ncc2cc(-c3cc(OC)cc(OC)c3)c(NC(=O)NC(C)(C)C)nc2n1` displayed a % of control in assay [1] of 100%.
`COc1cc(Nc2nc(C)cc(-c3cnn4nc(OC)ccc34)n2)cc(C(F)(F)F)c1` showed a % of control in assay [2] of 100%.
For `O[C@H]1CC[C@H](Nc2ncc3nc(Nc4c(F)cc(F)cc4F)n([C@H]4CCOC4)c3n2)CC1`, the % of control stood at 92% in assay [3] and 94% in assay [4].
Take `C=CC(=O)Nc1ccc(C(=O)Nc2[nH]nc3c2CN(C(=O)N[C@H](CN(C)C)c2ccccc2)C3(C)C)cc1`: in assay [5], the % of engagement was -20.2%.
